Data taken from ChEMBL document CHEMBL3286236, “Novel aromatic-polyamine conjugates as cholinesterase inhibitors with notable selectivity toward butyrylcholinesterase” (Bioorg Med Chem, 2014).

Experiments:
HepG2 = test: cells; details: Homo sapiens, HepG2, 48 h
Acetylcholinesterase = Acetylcholinesterase (Electrophorus electricus, UniProt O42275)
Description: Inhibition of electric eel AChE using acetylthiocholine chloride as substrate by spectrophotometer analysis

Cholinesterase = Cholinesterase (Equus caballus, UniProt P81908)
Description: Inhibition of equine serum BChE using butyrylthiocholine chloride as substrate by spectrophotometer analysis

[1] = Solubility of the compound; assay type: physicochemical

Acetylcholinesterase, sequence (O42275 whole entry): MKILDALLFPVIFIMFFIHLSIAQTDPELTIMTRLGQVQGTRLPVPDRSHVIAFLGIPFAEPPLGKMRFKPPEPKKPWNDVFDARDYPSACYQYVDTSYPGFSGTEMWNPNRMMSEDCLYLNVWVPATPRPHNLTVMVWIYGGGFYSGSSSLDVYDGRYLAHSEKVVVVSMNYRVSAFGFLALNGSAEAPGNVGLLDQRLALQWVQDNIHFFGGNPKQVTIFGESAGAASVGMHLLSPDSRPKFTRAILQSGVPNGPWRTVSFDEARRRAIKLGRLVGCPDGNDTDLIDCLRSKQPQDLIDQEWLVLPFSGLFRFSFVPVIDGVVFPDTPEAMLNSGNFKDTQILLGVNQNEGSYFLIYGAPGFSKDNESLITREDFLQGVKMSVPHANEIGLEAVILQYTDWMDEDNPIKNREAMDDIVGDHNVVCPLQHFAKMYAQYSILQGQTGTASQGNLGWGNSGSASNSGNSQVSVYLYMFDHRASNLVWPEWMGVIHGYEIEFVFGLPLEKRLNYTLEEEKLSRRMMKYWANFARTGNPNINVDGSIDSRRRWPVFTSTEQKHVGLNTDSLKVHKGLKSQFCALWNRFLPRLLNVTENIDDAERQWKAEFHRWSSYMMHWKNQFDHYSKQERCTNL
Cholinesterase, sequence (P81908 whole entry): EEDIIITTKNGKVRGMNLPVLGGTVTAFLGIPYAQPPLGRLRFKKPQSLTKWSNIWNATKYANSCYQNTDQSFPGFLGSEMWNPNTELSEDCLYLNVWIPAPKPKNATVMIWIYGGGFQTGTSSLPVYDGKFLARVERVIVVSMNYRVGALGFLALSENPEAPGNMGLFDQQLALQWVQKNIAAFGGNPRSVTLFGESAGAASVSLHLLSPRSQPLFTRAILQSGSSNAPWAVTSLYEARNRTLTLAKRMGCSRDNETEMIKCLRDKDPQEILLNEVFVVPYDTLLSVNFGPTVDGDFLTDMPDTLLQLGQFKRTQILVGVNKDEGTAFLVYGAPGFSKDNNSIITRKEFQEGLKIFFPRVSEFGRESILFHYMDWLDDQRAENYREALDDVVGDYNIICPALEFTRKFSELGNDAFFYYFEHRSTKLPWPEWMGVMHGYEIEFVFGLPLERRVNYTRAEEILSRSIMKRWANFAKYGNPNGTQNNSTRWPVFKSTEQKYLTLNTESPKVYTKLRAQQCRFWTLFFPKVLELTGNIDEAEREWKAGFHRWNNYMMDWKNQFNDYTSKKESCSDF

| solubility [1] | Structure (SMILES) | IC50 (HepG2) [µM] | IC50 (Acetylcholinesterase) [µM] | IC50 (Cholinesterase) [µM] |
| --- | --- | --- | --- | --- |
| – | NCCCNCCCCNCC(=O)Nc1c2ccccc2cc2ccccc12 | > 100 | 25.1 | 0.164 |
| – | O=C(CNCCCO)Nc1cccc2ccccc12 | > 100 | > 50 | > 50 |
| – | NCCCCNCC(=O)Nc1c2ccccc2cc2ccccc12 | > 100 | > 50 | 0.016 |
| – | O=C1c2c(O)ccc(O)c2C(=O)c2c(NCCNCCO)ccc(NCCNCCO)c21 [MITOXANTRONE] | 11.1 | – | – |
| – | NCCCNCCCCNCCCNCC(=O)Nc1cccc2ccccc12 | > 100 | > 50 | > 50 |
| – | NCCCNCC(=O)Nc1c2ccccc2cc2ccccc12 | > 100 | > 50 | 0.28 |
| – | NCCCNCCCNCC(=O)Nc1c2ccccc2cc2ccccc12 | > 100 | > 50 | 0.305 |
| Insoluble | Cl.O=C(CNC1CC1)Nc1c2ccccc2cc2ccccc12 | – | – | – |
| – | NCCCNCCCCNCCCNCC(=O)Nc1c2ccccc2cc2ccccc12 | > 100 | > 50 | 0.657 |
| Insoluble | CCN(CC)CC(=O)Nc1c2ccccc2cc2ccccc12.Cl | – | – | – |
| – | NCCCNCCCCNCCCNCC(=O)Nc1cccc2c1C(=O)c1ccccc1C2=O | 11.5 | 7.22 | > 50 |
| – | NCCCNCCCCNCC(=O)Nc1cccc2c1C(=O)c1ccccc1C2=O | 15.6 | 2.63 | 33 |
| – | NCCCCNCC(=O)Nc1cccc2ccccc12 | > 100 | > 50 | 10.3 |
| – | O=C(CNCCCO)Nc1cccc2c1C(=O)c1ccccc1C2=O | 23 | 11.1 | > 50 |
| – | NCCCCCCNCC(=O)Nc1c2ccccc2cc2ccccc12 | > 100 | 2.74 | 0.023 |
| – | NCCCNCCCCNCC(=O)Nc1cccc2ccccc12 | > 100 | > 50 | 47.5 |
| – | CN(C)CCNCC(=O)Nc1c2ccccc2cc2ccccc12 | > 100 | > 50 | 0.161 |
| – | O=C(CNCCCO)Nc1c2ccccc2cc2ccccc12 | > 100 | > 50 | 0.502 |
| – | NCCCCNCC(=O)Nc1cccc2c1C(=O)c1ccccc1C2=O | 24.2 | 1.5 | > 50 |
| – | CN(C)CCNCC(=O)Nc1cccc2ccccc12 | > 100 | > 50 | 4.39 |
